Reference: patent US9632090B2, “Compositions and methods for the identification, assessment, prevention and therapy of thymic lymphoma or hamartomatous tumours” (Dana-Farber Cancer Institute, Inc., priority 2007, dated 2017)
Like-named read-outs stand apart in the source and are kept apart here.

Experiments:
[1] = DMBA carcinogen treatment, survival and tumor development; assay type: in vivo, mouse; details: treated at day 7
Description: Littermate controls were analyzed for tumor-free survival. Animals were genotyped by PCR and allowed to age undisturbed in a maximum of 5 mice per cage with standard chow and water ad libitum in a standard light-day cycle. Mice were monitored three times a week and were sacrificed when moribund or if external tumors exceeded 2 cm in diameter and scored as a death in survival analysis. Those animals with cancer, as determined by histological analysis, were scored as an event in the tumor-free survival Kaplan-Meier analysis. For lung tumors, analysis of tumor load was carried out as done previously (Zhang et al., 2001).
Seven-day old pups were treated with 5% 7,12-dimethylbenz-alpha-anthracene (DMBA) in acetone by pipetting 50 μl onto the back, and allowing it to air-dry. Mice were monitored three times a week for signs of morbidity and underwent full autopsies for tumor detection.

thymocytes = test: Thymocyte apoptosis / cell viability (propidium iodide, flow cytometry); assay type: cell-based, mouse; details: 1 μM, 18 hrs
Description: For analysis of thymocytes, fresh thymus was passed through a cell strainer (Becton Dickinson) in order to produce single cell suspensions for analysis and resuspended in RPMI-1640 media containing 10% fetal calf serum. For thymocyte proliferation assays, cells were seeded in 96-well plates at 1×10^5 cells per well and subjected to the following conditions: no mitogen, PMA (1 ng/ml)+ionomycin (50 ng/ml), and 3 μg/ml anti-CD3e (eBioscience)+100 U IL-2. Cells were grown for 48 hours, pulsed with 1 μCi [3H]-thymidine (Amersham) for the last 16 hours. Incorporated [3H]-thymidine was measured using the 1450 MicroBeta Trilux Scintillation and Luminescence Counter. For analysis of apoptosis, thymocytes were plated in 12-well plates (1×10^6 cells per well) and treated with 5 Gy gamma-irradiation or 1 μM dexamethasone for 18 hours. Cell viability was determined by staining the cells with propidium iodide and performing flow cytometric analysis.

liver ECs [2] = test: MTT viability assay, liver endothelial cells; assay type: cell-based, mouse
Description: (§1) 100 ng/ml FGF, or 10% FBS.

lung ECs = test: MTT viability assay, lung endothelial cells; assay type: cell-based, mouse
Description: as §1

liver ECs [3] = test system: liver ECs
Description: Livers of Mx-Cre^+ or Mx-Cre^− mice injected with pI-pC 3 weeks prior were used for the isolation of liver ECs. Liver tissues were homogenized and digested in collagenase D and lysates were run through a cell strainer. ECs were enriched by taking the interphase of a 30% Histodenz (Sigma) and RPMI suspension of cells overlaid after spinning at 1500×g for 20 min. Cells were further affinity isolated by CD31-M450 prebound magnetic beads. […] VEGF and basic FGF were obtained from the Biological Resources Branch, NCI Preclinical Repository. Cells were grown in DMEM+0.5% BSA supplemented with 100 ng/ml VEGF. 100 ng/ml FGF, or 10% FBS. EC proliferation and apoptosis were measured with the BrdU labelling and detection kit (Roche) and the In situ cell death detection kit (Roche), respectively per the manufacturer's instruction. Viability of cells after various treatments was measured by MTT (2,3-bis-(2-methoxy-4-nitro-5-sulfophenyl)-2H-tetrazolium-5-carboxanilide) assays in 96 well plates. […] Vector (pLKO) alone and pLKO-GFP were used as controls to exclude non-specific responses. Cells were selected for 96 hrs with puromycin (1 μg/ml) and used for further assays.

VEGF = details: intravitreal, proliferative diabetic retinopathy, short term therapy; cited from earlier work
VEGF, sequence (P15692 207-311 limits assumed): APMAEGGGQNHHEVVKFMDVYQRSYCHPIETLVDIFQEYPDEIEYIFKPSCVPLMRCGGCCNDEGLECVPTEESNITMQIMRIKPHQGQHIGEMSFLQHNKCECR

Q: What does the source list for `Cc1c2ccccc2c(C)c2c1ccc1ccccc12` [DMBA, 7,12-dimethylbenz-alpha-anthracene]?
A: median survival ([1]; FoxO4+/+ mice): 27.3 weeks; median survival ([1]; FoxO4-/- mice): 23.4 weeks

Q: Which results are given for `C[C@@H]1C[C@H]2[C@@H]3CCC4=CC(=O)C=C[C@]4(C)[C@@]3(F)[C@@H](O)C[C@]2(C)[C@@]1(O)C(=O)CO` [dexamethasome, dexamethasone]?
A: survival (thymocytes; Mx-Cre+ thymocytes): 69.3±0.7 % survival; survival (thymocytes; Mx-Cre- thymocytes): 50.6±2.6 % survival

Q: Which survival upon exposure (liver ECs [2]; Mx-Cre- liver ECs (reduced survival)) does the source give for “TGF-β1: cytokine known to induce EC cytostasis through Smad signalling” here?
A: Its survival upon exposure is roughly 60%.

Q: What about the survival upon exposure (liver ECs [2]; liver ECs, much less sensitive) of the same compound?
A: The survival upon exposure was roughly 90%.

Q: What about the sensitivity to stimulation (lung ECs; lung ECs irrespective of FoxO status) of the same compound?
A: The sensitivity to stimulation was “insensitive”.

Q: What does the source list for VEGF?
A: increase in viability (proliferation upon stimulation) (liver ECs [2]; Mx-Cre+ liver ECs): 73.3%; increase in viability (proliferation upon stimulation) (liver ECs [2]; Mx-Cre- liver ECs): 17.9%; increase in viability (lung ECs; Mx-Cre+ lung ECs): 47.2%; increase in viability (lung ECs; Mx-Cre- lung ECs): 41.7%; tube length (VEGF-induced tube formation) (liver ECs [3]; Mx-Cre+ liver ECs): 4123±318 μm; tube length (VEGF-induced tube formation) (liver ECs [3]; Mx-Cre- liver ECs): 3229±285 μm

Q: For “bevacizumab: humanized anti-VEGF-A monoclonal antibody”, which angiographic leaking (VEGF) is on record?
A: Its angiographic leaking is “complete resolution of angiographic leaking”.
